{"source": "patent US10342786B2", "about": "“P38 kinase inhibitors reduce DUX4 and downstream gene expression for the treatment of FSHD” (Fulcrum Therapeutics, Inc., priority 2017, dated 2019)", "test_system": "active Caspase-3 in FSHD myotubes", "experiment": "Apoptosis by active Caspase-3 in FSHD myotubes", "assay_type": "cell-based, human", "settings": "FSHD1 and FSHD2 lines; vs healthy control line CTRL-FTCE-014", "method": "Briefly, cells were fixed in 4% paraformaldehyde and […] for 10 min at room temperature. Cells were permeabilized with PBST (1×PBS solution with 0.1% Triton X-100) before blocking with 10% Normal Donkey Serum or 3% BSA (NDS) in PBST. Cells were then incubated with appropriately diluted primary antibodies in PBST with 5% NDS for 1 hours at room temperature or 12 hours at 4° C., washed with PB ST for 3 times at room temperature and then incubated with desired secondary antibodies in TBST with 5% NDS and DAPI to counter stain the nuclei. DUX4 was detected by immunocytochemistry using the E5-5 antibody in differentiated FSHD myotubes. Activated Caspase-3 was detected cell signaling antibody that we're using for ICC, Asp175 (https://www.cellsignal.com/products/primary-antibodies/cleaved-caspase-3-asp175-antibody/9661).\nApoptosis was measured by active Caspase-3 levels in FSHD myotubes in vitro as described in Materials and Methods. Apoptosis was detected in a sporadic manner in a subset of myotubes in culture as shown by the white circles and magnified region in FIG. 9A. Active Caspase-3 signal was quantified in FSHD myotubes that had been treated with FTX-1821 at different concentrations (FIG. 9B). […] No change in active Caspase-3 signal was observed following DMSO treatment."}
{"smiles": "Cn1c(=O)c(Oc2ccc(F)cc2F)cc2cnc(NC(CCO)CCO)nc21", "note": "[Pamapimod, 6-(2,4-difluorophenoxy)-2-((1,5-dihydroxypentan-3-yl)amino)-8-methylpyrido[2,3-d]pyrimidin-7(8H)-one]", "values": [{"measurement": "apoptosis (active caspase-3)", "result": "reduction"}]}
